# Test results from patent US20220332701A1, “HETEROCYCLIC COMPOUNDS AS BCR-ABL INHIBITORS” (ASCENTAGE PHARMA (SUZHOU) CO., LTD., priority 2019, published 2022).
# Columns and labels:
# BaF3(WT) = BaF3(WT) (Homo sapiens, UniProt P00519); experiment: WST (CCK-8) anti-proliferation assay, BaF3 WT cells; conditions: read-out: BaF3(WT); anti-proliferative IC50, 72 h treatment, CCK-8, BaF3 WT
# BaF3(T315I) = BaF3(T315I) (Homo sapiens, UniProt P00519, T315I, cells depend on it); experiment: WST (CCK-8) anti-proliferation assay, BaF3 T315I cells; conditions: read-out: BaF3(T315I); anti-proliferative IC50, 72 h treatment, CCK-8, BaF3 T315I
Compound,GI50 (BaF3(WT)) [nM],GI50 (BaF3(T315I)) [nM]
"CN1CCC2(CC1)C(=O)Nc1cc(C(=O)Nc3ccc(OC(F)(F)Cl)cc3)cc(-c3ccn[nH]3)c12 [V-10, N-(4-(chlorodifluoromethoxy)phenyl)-1′-methyl-2-oxo-4-(1H-pyrazol-5-yl)spiro[indoline-3,4′-piperidine]-6-carboxamide]",110,921
"CN1C(=O)c2cc(C(=O)Nc3ccc(OC(F)(F)Cl)cc3)cc(-c3cccnc3)c2C1(C)C [IV-9, N-(4-(chlorodifluoromethoxy)phenyl)-1,1,2-trimethyl-3-oxo-7-(pyridin-3-yl)isoindoline-5-carboxamide]",77,107
"CC1(C)c2c(cc(C(=O)Nc3ccc(OC(F)(F)Cl)cc3)cc2-c2ccn[nH]2)C(=O)N1CCO [IV-5, N-(4-(chlorodifluoromethoxy)phenyl)-2-(2-hydroxyethyl)-1,1-dimethyl-3-oxo-7-(1H-pyrazol-5-yl)isoindoline-5-carboxamide]",121,1060
"O=C(Nc1ccc(OC(F)(F)Cl)cc1)c1cc2c(c(-c3ccn[nH]3)c1)C1(CCCC1)C(=O)N2 [V-3, N-(4-(chlorodifluoromethoxy)phenyl)-2′-oxo-4′-(1H-pyrazol-5-yl)spiro[cyclopentane-1,3′-indoline]-6′-carboxamide]",22,136
"Cc1ccc(-c2cc(C(=O)Nc3ccc(OC(F)(F)Cl)cc3)cc3c2C(C)(C)N(C)C3=O)o1 [IV-2, N-(4-(chlorodifluoromethoxy)phenyl)-1,1,2-trimethyl-7-(5-methylfuran-2-yl)-3-oxoisoindoline-5-carboxamide]",399,3340
"CN(C)CCN1C(=O)C(C)(C)c2c(-c3ccn[nH]3)cc(C(=O)Nc3ccc(OC(F)(F)Cl)cc3)cc21 [V-7, N-(4-(chlorodifluoromethoxy)phenyl)-1-(2-(dimethylamino)ethyl)-3,3-dimethyl-2-oxo-4-(1H-pyrazol-5-yl)indoline-6-carboxamide]",324,1540
"CC1(C)c2c(cc(C(=O)Nc3ccc(OC(F)(F)Cl)cc3)cc2-c2ccn[nH]2)C(=O)N1CCN1CCS(=O)(=O)CC1 [IV-7, N-(4-(chlorodifluoromethoxy)phenyl)-2-(2-(1,1-dioxidothiomorpholino)ethyl)-1,1-dimethyl-3-oxo-7-(1H-pyrazol-5-yl)isoindoline-5-carboxamide]",364,1750
"CN1C(=O)c2cc(C(=O)Nc3ccc(OC(F)(F)Cl)cc3)cc(-c3ccncc3)c2C1(C)C [IV-4, N-(4-(chlorodifluoromethoxy)phenyl)-1,1,2-trimethyl-3-oxo-7-(pyridin-4-yl)isoindoline-5-carboxamide]",129,581
"CN1C(=O)c2cc(C(=O)Nc3ccc(OC(F)(F)Cl)cc3)cc(-c3ccn[nH]3)c2C1(C)C [IV-1, N-(4-(chlorodifluoromethoxy)phenyl)-1,1,2-trimethyl-3-oxo-7-(1H-pyrazol-5-yl)isoindoline-5-carboxamide]",24,244
"CC1(C)C(=O)Nc2cc(C(=O)Nc3ccc(OC(F)(F)Cl)cc3)cc(-c3ccn[nH]3)c21 [V-1, N-(4-(chlorodifluoromethoxy)phenyl)-3,3-dimethyl-2-oxo-4-(1H-pyrazol-5-yl)indoline-6-carboxamide]",45,71

# The next lines start with the values.
GI50 (BaF3(WT)) [nM],GI50 (BaF3(T315I)) [nM],Compound
33,3110,"CC1CN(C(C)C)c2c(cc(C(=O)Nc3ccc(OC(F)(F)Cl)cc3)cc2-c2ccn[nH]2)O1 (centres unmarked) [IX-4, N-(4-(chlorodifluoromethoxy)phenyl)-4-isopropyl-2-methyl-5-(1H-pyrazol-5-yl)-3,4-dihydro-2H-benzo[b][1,4]oxazine-7-carboxamide]"
1690,3860,"CCC1c2cc(C(=O)Nc3ccc(OC(F)(F)Cl)cc3)cc(-c3ccn[nH]3)c2N(C(C)C)C1CNC (centres unmarked) [VII-24, N-(4-(chlorodifluoromethoxy)phenyl)-3-ethyl-1-isopropyl-2-((methylamino)methyl)-7-(1H-pyrazol-5-yl)indoline-5-carboxamide]"
158,1610,"CC(C)N1c2c(cc(C(=O)Nc3ccc(OC(F)(F)Cl)cc3)cc2-c2cncnc2)CC1C(=O)O (centres unmarked) [VII-21, 5-((4-(chlorodifluoromethoxy)phenyl)carbamoyl)-1-isopropyl-7-(pyrimidin-5-yl)indoline-2-carboxylic acid]"
1160,3840,"CC(C)C(=O)N1CCc2cc(C(=O)Nc3ccc(OC(F)(F)Cl)cc3)cc(-c3ccn[nH]3)c21 [VII-10, N-(4-(chlorodifluoromethoxy)phenyl)-1-isobutyryl-7-(1H-pyrazol-5-yl) indoline-5-carboxamide]"
82,552,"CC(C)n1cc(CO)c2cc(C(=O)Nc3ccc(OC(F)(F)Cl)cc3)cc(-c3cncnc3)c21 [XII-7, N-(4-(chlorodifluoromethoxy)phenyl)-3-(hydroxymethyl)-1-isopropyl-7-(pyrimidin-5-yl)-1H-indole-5-carboxamide]"
39,199,"CC(C)N1c2c(cc(C(=O)Nc3ccc(OC(F)(F)Cl)cc3)cc2-c2ccn[nH]2)CC1C(=O)N(C)C (centres unmarked) [VII-26, N5-(4-(chlorodifluoromethoxy)phenyl)-1-isopropyl-N2,N2-dimethyl-7-(1H-pyrazol-5-yl)indoline-2,5-dicarboxamide]"
113,144,"CN1CCc2cc(C(=O)Nc3ccc(OC(F)(F)Cl)cc3)cc(-c3ccn[nH]3)c21 [VII-7, N-(4-(chlorodifluoromethoxy)phenyl)-1-methyl-7-(1H-pyrazol-5-yl)indoline-5-carboxamide]"
403,4960,"CS(=O)(=O)N1CCc2cc(C(=O)Nc3ccc(OC(F)(F)Cl)cc3)cc(-c3ccn[nH]3)c21 [VII-9, N-(4-(chlorodifluoromethoxy)phenyl)-1-(methylsulfonyl)-7-(1H-pyrazol-5-yl) indoline-5-carboxamide]"
124,484,"CC(=O)N(C)CC1Cc2cc(C(=O)Nc3ccc(OC(F)(F)Cl)cc3)cc(-c3ccn[nH]3)c2N1C(C)C (centres unmarked) [VII-18, N-(4-(chlorodifluoromethoxy)phenyl)-1-isopropyl-2-((N-methylacetamido)methyl)-7-(1H-pyrazol-5-yl)indoline-5-carboxamide]"
56,660,"CC(C)N1c2c(cc(C(=O)Nc3ccc(OC(F)(F)Cl)cc3)cc2-c2cncnc2)CC1C(=O)N1CC(O)C1 (centres unmarked) [VII-14, N-(4-(chlorodifluoromethoxy)phenyl)-2-(3-hydroxyazetidine-1-carbonyl)-1-isopropyl-7-(pyrimidin-5-yl)indoline-5-carboxamide]"
17,333,"CC(C)N1CC(C)(C)Oc2cc(C(=O)Nc3ccc(OC(F)(F)Cl)cc3)cc(-c3ccn[nH]3)c21 [IX-5, N-(4-(chlorodifluoromethoxy)phenyl)-4-isopropyl-2,2-dimethyl-5-(1H-pyrazol-5-yl)-3,4-dihydro-2H-benzo[b][1,4]oxazine-7-carboxamide]"
115,654,"CC(C)n1ccc2cc(C(=O)Nc3ccc(OC(F)(F)Cl)cc3)cc(-c3ccn[nH]3)c21 [XII-1, N-(4-(chlorodifluoromethoxy)phenyl)-1-isopropyl-7-(1H-pyrazol-5-yl)-1H-indole-5-carboxamide]"
165,2180,"CCC1c2cc(C(=O)Nc3ccc(OC(F)(F)Cl)cc3)cc(-c3ccn[nH]3)c2N(C(C)C)C1CO (centres unmarked) [VII-20, N-(4-(chlorodifluoromethoxy)phenyl)-3-ethyl-2-(hydroxymethyl)-1-isopropyl-7-(1H-pyrazol-5-yl)indoline-5-carboxamide]"
94,790,"CC1(C)CNc2cc(C(=O)Nc3ccc(OC(F)(F)Cl)cc3)cc(-c3ccn[nH]3)c21 [III-3, N-(4-(chlorodifluoromethoxy)phenyl)-3,3-dimethyl-4-(1H-pyrazol-5-yl)indoline-6-carboxamide]"
18,474,"CC(C)N1CCc2cc(C(=O)Nc3ccc(SC(F)(F)F)cc3)cc(-c3ccn[nH]3)c21 [VII-45, 1-isopropyl-7-(1H-pyrazol-5-yl)-N-(4-((trifluoromethyl)thio)phenyl)indoline-5-carboxamide]"
